Laboratory results from ChEMBL document CHEMBL1136078, “Fundamental structure-activity relationships associated with a new structural class of respiratory syncytial virus inhibitor” (Bioorg Med Chem Lett, 2003).

What was measured:
[1] = test system: Respiratory syncytial virus; experiment: Antiviral activity against respiratory syncytial virus in HEp-2 human lung carcinoma cell line; […]; type: functional, organism-based
HEp-2 = experiment: Concentration that causes cytotoxicity to uninfected HEp-2 human lung carcinoma cell line; type: functional
[2] = test system: Respiratory syncytial virus; experiment: Antiviral activity against respiratory syncytial virus in HEp-2 human lung carcinoma cell line; type: functional, organism-based

SMILES | EC50 [1] | CC50 (HEp-2) [µM] | EC50 [2] [µM]
COC(=O)Cn1c(Cn2nnc3ccccc32)nc2ccccc21 | Not Active | 374 | –
O=C(O)CCn1c(Cn2nnc3ccccc32)nc2ccccc21 | – | 184 | 18.1
O=C(O)Cn1c(Cn2nnc3ccccc32)nc2ccccc21 | Not Active | 303 | –
CC(C)Cn1c(Cn2nc3ccccc3n2)nc2ccccc21 | – | 106 | 47.5
CC(C)n1c(Cn2nc3ccccc3n2)nc2ccccc21 | – | 58 | 51.5
N#CCCn1c(Cn2nnc3ccccc32)nc2ccccc21 | – | 49.3 | 2.69
CC(C)CCn1c(Cn2nc3ccccc3n2)nc2ccccc21 | – | 13.5 | 0.44
c1ccc2[nH]c(Cn3nnc4ccccc43)nc2c1 | – | 164 | 31.1
CC(C)Cn1c(Cn2nnc3ccccc32)nc2ccccc21 | Not Active | 15.5 | –
O=C(Cn1c(Cn2nnc3ccccc32)nc2ccccc21)c1ccccc1 | – | 18 | 2.2
CC(C)CCCn1c(Cn2nnc3ccccc32)nc2ccccc21 | – | 24 | 0.19
NC(=O)CCn1c(Cn2nnc3ccccc32)nc2ccccc21 | – | 4.28 | 2.1
CN(C)CCCn1c(Cn2nnc3ccccc32)nc2ccccc21 | – | 197 | 1.1
CCCCn1c(Cn2nnc3ccccc32)nc2ccccc21 | – | 12 | 0.066
CC(O)CCn1c(Cn2nnc3ccccc32)nc2ccccc21 (stereo not given) | – | > 309 | 0.12
CC(C)n1c(Cn2nnc3ccccc32)nc2ccccc21 | – | 129 | 15.5

SMILES | EC50 [1] | CC50 (HEp-2) [µM] | EC50 [2] [µM]
CSCCn1c(Cn2nnc3ccccc32)nc2ccccc21 | – | 166 | 0.3
CC(C)(C)OC(=O)CCn1c(Cn2nnc3ccccc32)nc2ccccc21 | – | 9.98 | 4.31
CS(=O)(=O)CCn1c(Cn2nnc3ccccc32)nc2ccccc21 | – | 337 | 0.25
OC(Cn1c(Cn2nnc3ccccc32)nc2ccccc21)c1ccccc1 (stereo not given) | – | 37.6 | 0.59
CC(C)CCn1c(Cn2nnc3ccccc32)nc2ccccc21 | – | 39.9 | 0.1
CCN(CC)CCCn1c(Cn2nnc3ccccc32)nc2ccccc21 | Not Active | – | –
C[S+]([O-])CCn1c(Cn2nnc3ccccc32)nc2ccccc21 (stereo not given) | – | 56.4 | 0.43
OCCn1c(Cn2nnc3ccccc32)nc2ccccc21 | – | 205 | 7.7
CC(C)=CCn1c(Cn2nnc3ccccc32)nc2ccccc21 | – | 102 | 3.3
CCN(CC)OC(=O)Cn1c(Cn2nnc3ccccc32)nc2ccccc21 | Not Active | 250 | –
c1ccc(Cn2c(Cn3nnc4ccccc43)nc3ccccc32)cc1 | – | 9 | 10.5
CCN(CC)OC(=O)Cn1c(Cn2nc3ccccc3n2)nc2ccccc21 | Not Active | – | –
CN(C)CCCn1c(Cn2nc3ccccc3n2)nc2ccccc21 | – | 182 | 3.6
c1ccc(CCn2c(Cn3nnc4ccccc43)nc3ccccc32)cc1 | – | 2.6 | 0.77
CC(=O)CCn1c(Cn2nnc3ccccc32)nc2ccccc21 | – | 59 | 0.52
